Measurements published in US12447153B2, “HER2 mutation inhibitors” (Array BioPharma Inc., priority 2021, dated 2025).

Assays:
[1] = biological target: EGFR (Homo sapiens (Human), UniProt P00533); assay: ErbB Enzyme Assay (HTRF KinEASE-TK), Assay 3; type: biochemical
[2] = biological target: ErbB2 with Exon 20 YVMA insertion (HER2-YVMA) (Homo sapiens (Human), UniProt P04626, INS775YVMA); assay: Cellular Phosphorylation Assay, Assay 4 (constitutive ErbB2 phosphorylation, NIH 3T3 cells); type: cell-based
[3] = biological target: ErbB2 WT (Homo sapiens (Human), UniProt P04626); assay: ErbB Enzyme Assay (HTRF KinEASE-TK), Assay 2; type: biochemical
[4] = biological target: EGFR wild type (EGFR WT) (Homo sapiens (Human), UniProt P00533); assay: Cellular Phosphorylation Assay, Assay 5 (EGF-stimulated EGFR phosphorylation, NIH 3T3 cells); type: cell-based
[5] = cellular ErbB2 YVMA phosphorylation
[6] = cellular EGFR WT phosphorylation, EGF-stimulated
[7] = EGF-stimulated EGFR WT phosphorylation

Sequence of ErbB2 with Exon 20 YVMA insertion (HER2-YVMA) (P04626 other isoform, or with tags, fused parts or gaps ins YVMA behind 775): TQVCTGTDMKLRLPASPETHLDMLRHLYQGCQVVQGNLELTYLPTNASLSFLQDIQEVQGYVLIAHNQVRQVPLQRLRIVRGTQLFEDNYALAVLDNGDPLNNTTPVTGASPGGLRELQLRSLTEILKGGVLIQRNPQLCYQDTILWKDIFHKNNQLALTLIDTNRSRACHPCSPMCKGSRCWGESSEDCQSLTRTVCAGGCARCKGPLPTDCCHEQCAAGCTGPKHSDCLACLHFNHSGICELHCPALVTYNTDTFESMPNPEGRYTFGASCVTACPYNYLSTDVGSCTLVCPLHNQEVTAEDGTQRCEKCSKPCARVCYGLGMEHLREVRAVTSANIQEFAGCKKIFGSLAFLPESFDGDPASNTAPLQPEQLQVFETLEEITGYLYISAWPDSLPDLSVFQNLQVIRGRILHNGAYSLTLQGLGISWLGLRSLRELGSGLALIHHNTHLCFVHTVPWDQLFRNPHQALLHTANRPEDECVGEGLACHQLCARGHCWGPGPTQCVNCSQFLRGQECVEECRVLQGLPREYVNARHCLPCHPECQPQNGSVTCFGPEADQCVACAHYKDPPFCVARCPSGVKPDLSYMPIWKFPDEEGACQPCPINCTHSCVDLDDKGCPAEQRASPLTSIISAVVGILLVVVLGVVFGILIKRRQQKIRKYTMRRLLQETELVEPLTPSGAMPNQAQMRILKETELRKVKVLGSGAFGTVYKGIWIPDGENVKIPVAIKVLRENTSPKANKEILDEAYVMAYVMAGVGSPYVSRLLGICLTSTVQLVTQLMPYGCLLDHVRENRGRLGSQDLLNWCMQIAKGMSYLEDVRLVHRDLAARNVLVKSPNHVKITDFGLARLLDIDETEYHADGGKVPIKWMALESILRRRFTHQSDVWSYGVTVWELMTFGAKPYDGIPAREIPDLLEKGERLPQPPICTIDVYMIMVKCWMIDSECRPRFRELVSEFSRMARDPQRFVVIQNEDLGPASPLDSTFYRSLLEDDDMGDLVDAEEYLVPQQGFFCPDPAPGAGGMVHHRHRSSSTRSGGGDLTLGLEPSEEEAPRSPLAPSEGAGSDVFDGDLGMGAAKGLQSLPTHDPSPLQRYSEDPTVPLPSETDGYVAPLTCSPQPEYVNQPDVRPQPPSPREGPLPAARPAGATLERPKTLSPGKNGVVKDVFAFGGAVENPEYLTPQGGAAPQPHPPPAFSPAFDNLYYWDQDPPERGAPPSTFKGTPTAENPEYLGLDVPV
Sequence of ErbB2 WT (P04626 23-1255): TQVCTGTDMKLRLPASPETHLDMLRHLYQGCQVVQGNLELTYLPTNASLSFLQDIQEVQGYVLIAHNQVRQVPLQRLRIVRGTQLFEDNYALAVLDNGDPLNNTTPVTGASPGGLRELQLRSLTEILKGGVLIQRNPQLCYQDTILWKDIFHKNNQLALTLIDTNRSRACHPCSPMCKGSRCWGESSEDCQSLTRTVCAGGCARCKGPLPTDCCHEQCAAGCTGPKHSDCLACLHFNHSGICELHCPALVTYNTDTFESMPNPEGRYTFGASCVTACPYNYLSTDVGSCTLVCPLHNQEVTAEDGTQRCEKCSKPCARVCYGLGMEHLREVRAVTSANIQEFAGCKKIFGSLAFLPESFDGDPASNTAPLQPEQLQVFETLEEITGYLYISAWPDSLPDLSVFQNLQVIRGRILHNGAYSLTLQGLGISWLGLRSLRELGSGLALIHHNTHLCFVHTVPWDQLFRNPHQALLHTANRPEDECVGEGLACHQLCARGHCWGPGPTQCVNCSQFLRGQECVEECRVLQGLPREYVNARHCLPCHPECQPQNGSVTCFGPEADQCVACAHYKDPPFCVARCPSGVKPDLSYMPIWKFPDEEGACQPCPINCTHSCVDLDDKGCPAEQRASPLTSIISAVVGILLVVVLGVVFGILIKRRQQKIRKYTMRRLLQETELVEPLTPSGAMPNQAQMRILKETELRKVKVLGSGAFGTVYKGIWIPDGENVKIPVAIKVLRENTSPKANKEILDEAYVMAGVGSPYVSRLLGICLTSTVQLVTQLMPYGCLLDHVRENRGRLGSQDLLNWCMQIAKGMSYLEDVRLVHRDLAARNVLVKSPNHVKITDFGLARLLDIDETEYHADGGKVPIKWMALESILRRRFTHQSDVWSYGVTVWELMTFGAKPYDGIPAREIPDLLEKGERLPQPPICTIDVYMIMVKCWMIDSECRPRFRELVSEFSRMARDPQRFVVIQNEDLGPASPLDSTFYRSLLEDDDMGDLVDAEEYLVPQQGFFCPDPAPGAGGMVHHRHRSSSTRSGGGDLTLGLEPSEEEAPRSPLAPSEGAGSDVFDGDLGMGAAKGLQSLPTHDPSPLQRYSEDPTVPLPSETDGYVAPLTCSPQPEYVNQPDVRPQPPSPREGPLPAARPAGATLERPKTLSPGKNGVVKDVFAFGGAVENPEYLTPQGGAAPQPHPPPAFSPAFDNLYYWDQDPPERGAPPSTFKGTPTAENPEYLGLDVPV
Sequence of EGFR wild type (EGFR WT) (P00533 25-1210): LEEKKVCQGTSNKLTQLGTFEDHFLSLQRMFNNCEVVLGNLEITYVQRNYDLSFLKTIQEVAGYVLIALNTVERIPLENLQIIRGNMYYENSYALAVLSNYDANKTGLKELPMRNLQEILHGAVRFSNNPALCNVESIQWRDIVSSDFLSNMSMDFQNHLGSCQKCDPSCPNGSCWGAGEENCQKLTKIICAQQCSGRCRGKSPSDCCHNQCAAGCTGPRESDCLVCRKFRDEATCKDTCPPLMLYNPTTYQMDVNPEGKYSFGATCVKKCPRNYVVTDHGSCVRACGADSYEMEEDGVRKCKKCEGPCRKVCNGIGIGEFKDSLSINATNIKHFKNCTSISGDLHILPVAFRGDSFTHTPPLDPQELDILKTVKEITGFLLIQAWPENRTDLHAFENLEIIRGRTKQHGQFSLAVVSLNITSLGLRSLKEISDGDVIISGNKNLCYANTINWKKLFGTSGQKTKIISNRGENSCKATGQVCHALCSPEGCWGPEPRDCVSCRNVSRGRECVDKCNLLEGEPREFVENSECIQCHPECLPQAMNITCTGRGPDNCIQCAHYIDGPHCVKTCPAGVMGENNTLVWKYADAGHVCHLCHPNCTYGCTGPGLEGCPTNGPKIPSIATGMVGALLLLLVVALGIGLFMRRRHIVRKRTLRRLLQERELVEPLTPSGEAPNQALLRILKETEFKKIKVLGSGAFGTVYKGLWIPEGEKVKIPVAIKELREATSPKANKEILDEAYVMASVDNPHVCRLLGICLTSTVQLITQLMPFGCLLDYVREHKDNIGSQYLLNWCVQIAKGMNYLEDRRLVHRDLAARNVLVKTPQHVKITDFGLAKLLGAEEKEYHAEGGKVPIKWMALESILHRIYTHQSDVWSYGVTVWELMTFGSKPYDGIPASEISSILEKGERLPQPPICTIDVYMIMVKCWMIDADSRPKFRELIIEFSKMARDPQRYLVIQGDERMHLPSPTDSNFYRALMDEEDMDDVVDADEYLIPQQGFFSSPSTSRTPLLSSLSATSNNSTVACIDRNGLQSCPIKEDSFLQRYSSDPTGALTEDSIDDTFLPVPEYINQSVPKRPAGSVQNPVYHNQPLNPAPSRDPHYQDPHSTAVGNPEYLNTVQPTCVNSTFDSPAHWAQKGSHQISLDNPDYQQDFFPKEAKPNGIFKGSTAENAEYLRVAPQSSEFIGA
Sequence of EGFR (P00533 25-1210): as above

SMILES	IC50 ([1]; EGFR enzyme assay)	IC50 [2, 5]	IC50 ([3]; ErbB2 WT enzyme assay)	IC50 [4, 6]	IC50 ([1]; EGFR enzyme)	IC50 ([2]; ErbB2 YVMA phosphorylation)	IC50 ([3]; ErbB2 WT enzyme)	IC50 [4, 7]
C=CC(=O)N1C[C@H]2CC[C@@H]1[C@@H](c1ccc3ncnc(Nc4ccc(Oc5cnc6c(c5)ncn6C)c(C)c4F)c3n1)C2 [Example 427]	2990 nM	56.4 nM	104 nM	≥ 5000 nM				
C=CC(=O)N1CC[C@H]2C[C@H](c3ccc4ncnc(Nc5ccc(Oc6ccn7ncnc7c6)c(C)c5F)c4n3)C[C@H]21 [Example 382]	584 nM	21 nM	15 nM	339 nM				
C=CC(=O)N1C[C@@H]2CC[C@H]1CN2c1ccc2ncnc(Nc3cc(Cl)c(Oc4ccn5ncnc5c4)cc3F)c2n1 [Example 321]	86.4 nM	3.8 nM	4.6 nM	124 nM				
C=CC(=O)N1C[C@@H]2C[C@H]1CC[C@@H]2c1ccc2ncnc(Nc3cc(C)c(Oc4ccc5c(c4)ncn5C)cc3F)c2n1 [Example 378]	4560 nM	66.3 nM	54 nM	≥ 5000 nM				
C=CC(=O)N1CCC(Sc2ccc3ncnc(Nc4ccc(Oc5ccn6ncnc6c5)c(C)c4F)c3n2)CC1 [Example 60, 1-(4-((4-((4-([1,2,4]triazolo[1,5-a]pyridin-7-yloxy)-2-fluoro-3-methylphenyl)amino)pyrido[3,2-d]pyrimidin-6-yl)thio)piperidin-1-yl)prop-2-en-1-one]					≥ 10000 nM	49.4 nM	54.3 nM	1210 nM
C=CC(=O)N1CCN(c2ccc3ncnc(Nc4ccc(Oc5ccn6ncnc6c5)c(Cl)c4F)c3n2)C[C@H]1C(C)C [Example 291]	462 nM	9.5 nM	14.9 nM	276 nM				
C=CC(=O)N1CCN(c2ccc3ncnc(Nc4ccc(Oc5ccn6ncnc6c5)c(Cl)c4F)c3n2)CC1(C)C [Example 87, 1-(4-(4-((4-([1,2,4]triazolo[1,5-a]pyridin-7-yloxy)-3-chloro-2-fluorophenyl)amino)pyrido[3,2-d]pyrimidin-6-yl)-2,2-dimethylpiperazin-1-yl)prop-2-en-1-one]					463 nM	8.8 nM	7.5 nM	178 nM
C=CC(=O)N1C[C@H](c2ccc3ncnc(Nc4ccc(Oc5ccn6ncnc6c5)c(C)c4F)c3n2)C[C@H]1C (mixture of isomers) [Example 387]	2200 nM	60.8 nM	52.1 nM	4280 nM				
C=CC(=O)N1CCN(c2ccc3ncnc(Nc4ccc(Oc5ccn6ncnc6c5)c(C)c4F)c3n2)CC12CCC2 [Example 308]	432 nM	8.4 nM	15.5 nM	110 nM				
C=CC(=O)N1CCC(Oc2nc3c(Nc4ccc(Oc5ccn6ncnc6c5)c(C)c4F)ncnc3cc2OC)CC1 [Example 40, 1-(4-((4-((4-([1,2,4]triazolo[1,5-a]pyridin-7-yloxy)-2-fluoro-3-methylphenyl)amino)-7-methoxypyrido[3,2-d]pyrimidin-6-yl)oxy)piperidin-1-yl)prop-2-en-1-one]					300 nM	7.8 nM	11.3 nM	111 nM
C=CC(=O)N1C2CC1CN(c1ccc3ncnc(Nc4cc(Cl)c(Oc5ccn6ncnc6c5)cc4F)c3n1)C2 [Example 44, 1-(3-(4-((4-([1,2,4]triazolo[1,5-a]pyridin-7-yloxy)-5-chloro-2-fluorophenyl)amino)pyrido[3,2-d]pyrimidin-6-yl)-3,6-diazabicyclo[3.1.1]heptan-6-yl)prop-2-en-1-one]					≥ 10000 nM	55.7 nM	81.5 nM	≥ 5000 nM
C=CC(=O)N1CCN(c2ccc3ncnc(Nc4cc(C)c(Oc5ccn6ncnc6c5)cc4F)c3n2)CC1 [Example 79, 1-(4-(4-((4-([1,2,4]triazolo[1,5-a]pyridin-7-yloxy)-2-fluoro-5-methylphenyl)amino)pyrido[3,2-d]pyrimidin-6-yl)piperazin-1-yl)prop-2-en-1-one]					≥ 10000 nM	42.6 nM	104 nM	≥ 5000 nM
C=CC(=O)N(C)[C@@H]1CCN(c2ccc3ncnc(Nc4cc(C)c(Oc5ccn6ncnc6c5)cc4F)c3n2)C1 [Example 350]	≥ 10000 nM	96 nM	69.4 nM	≥ 5000 nM				
C=CC(=O)N1CCC(Oc2ccc3ncnc(Nc4ccc(Oc5cnn6ccnc6c5)c(C)c4F)c3n2)CC1 [Example 56, 1-(4-((4-((2-fluoro-4-(imidazo[1,2-b]pyridazin-7-yloxy)-3-methylphenyl)amino)pyrido[3,2-d]pyrimidin-6-yl)oxy)piperidin-1-yl)prop-2-en-1-one]					1440 nM	19.7 nM	233 nM	374 nM
C=CC(=O)N1CCN(c2ccc3ncnc(Nc4ccc(Oc5ccn6ncnc6c5)c(C)c4F)c3n2)C[C@@H]1C(C)C [Example 266]	≥ 10000 nM	91.2 nM	178 nM	≥ 5000 nM				
C=CC(=O)N1CCCCC(c2ccc3ncnc(Nc4ccc(Oc5ccn6ncnc6c5)c(C)c4)c3n2)C1 (centres unmarked) [Example 204, 1-(3-(4-((4-([1,2,4]triazolo[1,5-a]pyridin-7-yloxy)-3-methylphenyl)amino)pyrido[3,2-d]pyrimidin-6-yl)azepan-1-yl)prop-2-en-1-one]					900 nM	20.8 nM	13.2 nM	2940 nM
C=CC(=O)N1C2CC1CN(c1ccc3ncnc(Nc4cc(Cl)c(Oc5cnc6c(c5)ncn6C)cc4F)c3n1)C2 [Example 241, 1-(3-(4-((5-chloro-2-fluoro-4-((3-methyl-3H-imidazo[4,5-b]pyridin-6-yl)oxy)phenyl)amino)pyrido[3,2-d]pyrimidin-6-yl)-3,6-diazabicyclo[3.1.1]heptan-6-yl)prop-2-en-1-one]					≥ 10000 nM	22.2 nM	354 nM	≥ 5000 nM
C=CC(=O)N1CCN(c2ccc3ncnc(Nc4ccc(Oc5ccn6ncnc6c5)c(C)c4F)c3n2)CC12CC2 [Example 338]	108 nM	4.9 nM	7 nM	68.9 nM				
C=CC(=O)N1C[C@H]2C[C@@H]1CN2c1ccc2ncnc(Nc3ccc(Oc4ccn5ncnc5c4)c(Cl)c3F)c2n1 [Example 92, 1-((1R,4R)-5-(4-((4-([1,2,4]triazolo[1,5-a]pyridin-7-yloxy)-3-chloro-2-fluorophenyl)amino)pyrido[3,2-d]pyrimidin-6-yl)-2,5-diazabicyclo[2.2.1]heptan-2-yl)prop-2-en-1-one]					2430 nM	15.4 nM	126 nM	1880 nM
C=CC(=O)N1CCC(Oc2nc3c(Nc4ccc(Oc5ccc6cn(C)nc6c5)c(Cl)c4F)ncnc3cc2OC)CC1 [Example 156, 1-(4-((4-((3-chloro-2-fluoro-4-((2-methyl-2H-indazol-6-yl)oxy)phenyl)amino)-7-methoxypyrido[3,2-d]pyrimidin-6-yl)oxy)piperidin-1-yl)prop-2-en-1-one]					110 nM	19.6 nM	20.3 nM	215 nM
C=CC(=O)N1C[C@H]2C[C@@H]1[C@H](c1ccc3ncnc(Nc4ccc(Oc5ccn6ncnc6c5)c(C)c4F)c3n1)C2 [Example 372]	1130 nM	52.7 nM	19 nM	4080 nM				
C=CC(=O)N1CCCN(c2ccc3ncnc(Nc4ccc(Oc5ccn6ncnc6c5)c(Cl)c4)c3n2)CC1 [Example 99, 1-(4-(4-((4-([1,2,4]triazolo[1,5-a]pyridin-7-yloxy)-3-chlorophenyl)amino)pyrido[3,2-d]pyrimidin-6-yl)-1,4-diazepan-1-yl)prop-2-en-1-one]					5840 nM	35.2 nM	19 nM	≥ 5000 nM
C=CC(=O)N1[C@@H](C)CN(c2ccc3ncnc(Nc4ccc(Oc5ccc6c(c5)ncn6C)c(C)c4F)c3n2)C[C@@H]1C [Example 256]	≥ 10000 nM	66.9 nM	57.2 nM	≥ 5000 nM				
C=CC(=O)N1C[C@@H]2C[C@H]1C[C@H]2c1ccc2ncnc(Nc3cc(C)c(Oc4ccn5ncnc5c4)cc3F)c2n1 [Example 373]	1580 nM	44 nM	55.5 nM	3360 nM				
C=CC(=O)N1CCC(Oc2ccc3ncnc(Nc4cc(Cl)c(Oc5ccc6cn(C)nc6c5)cc4Cl)c3n2)CC1 [Example 2, 1-(4-((4-((2,5-dichloro-4-((2-methyl-2H-indazol-6-yl)oxy)phenyl)amino)pyrido[3,2-d]pyrimidin-6-yl)oxy)piperidin-1-yl)prop-2-en-1-one]					≥ 10000 nM	1140 nM	1290 nM	≥ 5000 nM
C=CC(=O)N1CCC(Oc2ccc3ncnc(Nc4ccc(Oc5cnn6ccnc6c5)c(C)c4)c3n2)CC1 [Example 8, 1-(4-((4-((4-(imidazo[1,2-b]pyridazin-7-yloxy)-3-methylphenyl)amino)pyrido[3,2-d]pyrimidin-6-yl)oxy)piperidin-1-yl)prop-2-en-1-one]					1350 nM	47.3 nM	76.5 nM	799 nM
C=CC(=O)N(C)[C@@H]1CCN(c2ccc3ncnc(Nc4ccc(Oc5ccn6ncnc6c5)c(C)c4F)c3n2)C1 [Example 349]	2680 nM	35.8 nM	29.3 nM	≥ 5000 nM				
C=CC(=O)N1C[C@H]2CC[C@H](c3ccc4ncnc(Nc5cc(C)c(Oc6ccn7ncnc7c6)cc5F)c4n3)[C@H]2C1 [Example 410]	3670 nM	82.7 nM	120 nM	≥ 5000 nM				
C=CC(=O)N1CC(Cc2ccc3ncnc(Nc4ccc(Oc5ccn6ncnc6c5)c(C)c4F)c3n2)C1 [Example 298]	255 nM	29.9 nM	36.5 nM	902 nM				
